Publication PMC2757182 (The Journal of Biological Chemistry, 2009)
Where a chain is given by its changes, count along the chain named.

Legend:
Test in all cases: tryptophan fluorescence quenching
Assay type in all cases: binding
[1] = target: T1, GUN4 Δ1–69 (GENOMES UNCOUPLED 4) (Arabidopsis thaliana, UniProt Q9LX31, R211A)
T1 sequence (Q9LX31 70-265 R211A): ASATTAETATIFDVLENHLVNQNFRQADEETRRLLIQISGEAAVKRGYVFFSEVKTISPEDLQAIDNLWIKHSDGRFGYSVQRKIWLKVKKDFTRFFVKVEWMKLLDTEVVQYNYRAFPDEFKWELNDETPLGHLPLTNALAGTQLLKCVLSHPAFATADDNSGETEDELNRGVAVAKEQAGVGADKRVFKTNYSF

[2] = target: T2, GUN4 Δ1–69 (GENOMES UNCOUPLED 4) (Arabidopsis thaliana, UniProt Q9LX31)
T2 sequence (Q9LX31 70-265): T1 sequence (Q9LX31 70-265 R211A) with A142R

[3] = target: T3, GUN4 Δ1–69 (GENOMES UNCOUPLED 4) (Arabidopsis thaliana, UniProt Q9LX31, F191A)
T3 sequence (Q9LX31 70-265 F191A): T1 sequence (Q9LX31 70-265 R211A) with F122A, A142R

[4] = target: T4, GUN4 Δ1–69 (GENOMES UNCOUPLED 4) (Arabidopsis thaliana, UniProt Q9LX31, V123A)
T4 sequence (Q9LX31 70-265 V123A): T1 sequence (Q9LX31 70-265 R211A) with V54A, A142R

Kd [1] | Kd [2] | Kd [3] | Kd [4] | SMILES
14 ± 0.83 µM | 6.4 ± 0.21 µM | 12 ± 0.77 µM | 9.6 ± 0.44 µM | CC1=C(CCC(=O)O)c2cc3nc(cc4[nH]c(cc4C)cc4[nH]c(cc1n2)cc4C)C(C)=C3CCC(=O)O [DPIX]
 | 8.1 ± 0.75 µM |  |  | C=CC1=C(C)C2=Cc3c(C=C)c(C)c4[n]3[Fe]([Cl])[n]3c(c(C)c(CCC(=O)O)c3=CC3=NC(=C4)C(C)=C3CCC(=O)O)=CC1=N2 [Hemin]
 | 15 ± 0.82 µM |  |  | CC1=C(CCC(=O)O)c2cc3nc(cc4[nH]c(cc5[nH]c(cc1n2)c(C)c5CCC(=O)O)c(CCC(=O)O)c4C)C(CCC(=O)O)=C3C [Coproporphyrin III]
 | 3.8 ± 0.33 µM |  |  | C=Cc1c(C)c2cc3nc(c4c5[nH]c(cc6nc(cc1[nH]2)C(C)=C6CC)c(C)c5C(=O)[C@@H]4C(=O)OC)[C@@H](CCC(=O)O)[C@@H]3C [Pheophorbide a]
 | 11 ± 0.5 µM |  |  | C=CC1=C(C)c2cc3[nH]c(cc4nc(cc5[nH]c(cc1n2)c(C)c5CCC(=O)O)C(CCC(=O)O)=C4C)c(C)c3C=C [PPIX]
 | 10 ± 0.57 µM |  |  | O=C(O)CCC1=C(CC(=O)O)c2cc3[nH]c(cc4nc(cc5[nH]c(cc1n2)c(CC(=O)O)c5CCC(=O)O)C(CCC(=O)O)=C4CC(=O)O)c(CC(=O)O)c3CCC(=O)O [Uroporphyrin III]
